{"source": "patent US4613604A", "about": "“Hydroxymethyl derivatives of 5-benzylacyclouridine and 5-benzoyloxybenzylacyclouridine and their use as potentiators for 5-fluoro-2'-deoxyuridine” (Brown University Research Foundation, priority 1985, dated 1986)", "key": {"[1]": {"conditions": "background statement, in words; cited from earlier work"}, "uridine phosphorylase [2]": {"tested_on": "uridine phosphorylase", "conditions": "among the acyclouridines developed; cited from earlier work"}, "[3]": {"tested_on": "human lung carcinoma (LX-1)", "conditions": "LX-1, in vivo; cited from earlier work"}, "[4]": {"tested_on": "human lung carcinoma (LX-1)", "conditions": "LX-1, in vitro; cited from earlier work"}, "[5]": {"tested_on": "human pancreatic carcinoma (DAN)", "conditions": "in vitro; cited from earlier work"}, "[6]": {"tested_on": "cleavage of FdUrd in certain tumor extracts", "conditions": "cited from earlier work"}, "[7]": {"tested_on": "human pancreatic carcinoma (DAN)", "conditions": "in vivo; cited from earlier work"}, "[8]": {"tested_on": "human pancreatic carcinoma (DAN)", "test": "Growth inhibition of pancreatic carcinoma DAN cells in culture by FdUrd with or without potentiator", "assay_type": "cell-based", "conditions": "for in vitro antineoplastic activity of FdUrd with potentiator, in words: DAN cells, combination with FdUrd; for effect of potentiator alone on the growth of DAN in culture: potentiator alone at 50 μM, no FdUrd", "experimental": "Determination of the activities of HM-BAU and HM-BBAU as potentiators of FdUrd anti-neoplastic activity was carried out using a human pancreatic carcinoma (DAN) in culture. Details of the procedure are described in Chu et al., supra. Table 1 summarizes the effect of HM-BAU and HM-BBAU upon the inhibitory effect of FdUrd on the growth of pancreatic DAN cells in culture.\nFdUrd alone at 0.1 and 0.3 μM inhibited the cell growth by 20% and 34% respectively."}, "uridine phosphorylase [9]": {"molecular_target": "uridine phosphorylase", "test": "Inhibition of uridine phosphorylase from human liver (105,000×g supernatant of liver homogenate)", "assay_type": "biochemical", "conditions": "for Ki: human liver enzyme, apparent Ki = Ki(1+[S]/Km), type of inhibition not characterized; for inhibition of human liver uridine phosphorylase, in words: compared with BAU and BBAU", "experimental": "(§1) Testing of compounds HM-BAU and HM-BBAU as inhibitors of uridine phosphorylase was performed using 105,000×g supernatant of mouse liver and human liver homogenates. Enzyme assays were carried out as described in Niedzwicki et al., Biochem. Pharm. 31, 1857 (1982), supra. Apparent Ki values are related to Ki by the following equation: [formula] where Kis and Kii are the inhibition constants that would have been estimated from the replots of slope and intercept, respectively, of a Lineweaver-Burk plot vs [I]. If a compound is a competitive inhibitor with respect to the substrate uridine. Kii =.infin. and Kis =Ki. Therefore:\n(§2) apparent Ki =Ki (1+[S]/Km)\n(§3) Thus, the true Ki values would be lower than the apparent Ki values by a factor of (1+S/Km). It must be noted, however, that these compounds were not characterized with regard to the type of inhibition (i.e. competitive, non-competitive or uncompetitive), nor were they tested as substrates for uridine phosphorylase."}, "uridine phosphorylase [10]": {"molecular_target": "uridine phosphorylase", "test": "Inhibition of uridine phosphorylase from mouse liver (105,000×g supernatant of liver homogenate)", "assay_type": "biochemical", "conditions": "mouse liver enzyme; apparent Ki = Ki(1+[S]/Km); type of inhibition not characterized", "experimental": "as §1, §2, §3"}, "Water solubility": {"test": "Water solubility", "assay_type": "physicochemical", "conditions": "in words"}, "[11]": {"conditions": "potentiator 50 μM, added 5 minutes prior to FdUrd 0.1 μM, P < 0.001 vs control, p < 0.01 from one another"}, "[12]": {"conditions": "potentiator 50 μM, added 5 minutes prior to FdUrd 0.3 μM"}}, "note": "Where “and” joins values, the source holds several entries; their conditions need not be identical. Equal entries are not always repeated. Where two headings read alike, the source gives them in different places."}
{"smiles": "O=c1[nH]c(=O)n(COCCO)cc1Cc1ccccc1", "note": "[BAU, 5-benzylacyclouridine]", "values": [{"measurement": "water solubility", "setting": "[1]", "result": "not very water soluble"}, {"measurement": "effectiveness as uridine phosphorylase inhibitor, in words", "setting": "uridine phosphorylase [2]", "result": "particularly effective"}, {"measurement": "enhancement of antineoplastic activity of FdUrd", "setting": "[3]", "result": "enhance the antineoplastic activity of FdUrd"}, {"measurement": "enhancement of antineoplastic activity of FdUrd", "setting": "[4]", "result": "enhance the antineoplastic activity of FdUrd"}, {"measurement": "enhancement of antineoplastic activity of FdUrd", "setting": "[5]", "result": "enhance the antineoplastic activity of FdUrd"}, {"measurement": "inhibition of cleavage of FdUrd", "setting": "[6]", "result": "inhibit the cleavage of FdUrd"}, {"measurement": "enhancement of antineoplastic activity of FdUrd", "setting": "[7]", "result": "enhance the antineoplastic activity of FdUrd"}]}
{"smiles": "O=c1[nH]c(=O)n(COCCO)cc1Cc1cccc(OCc2ccccc2)c1", "note": "[BBAU, 5-benzyloxybenzylacyclouridine]", "values": [{"measurement": "water solubility", "setting": "[1]", "result": "not very water soluble"}, {"measurement": "effectiveness as uridine phosphorylase inhibitor, in words", "setting": "uridine phosphorylase [2]", "result": "particularly effective"}, {"measurement": "enhancement of antineoplastic activity of FdUrd", "setting": "[3]", "result": "enhance the antineoplastic activity of FdUrd"}, {"measurement": "enhancement of antineoplastic activity of FdUrd", "setting": "[4]", "result": "enhance the antineoplastic activity of FdUrd"}, {"measurement": "enhancement of antineoplastic activity of FdUrd", "setting": "[5]", "result": "enhance the antineoplastic activity of FdUrd"}, {"measurement": "inhibition of cleavage of FdUrd", "setting": "[6]", "result": "inhibit the cleavage of FdUrd"}, {"measurement": "enhancement of antineoplastic activity of FdUrd", "setting": "[7]", "result": "enhance the antineoplastic activity of FdUrd"}]}
{"smiles": "O=c1[nH]c(=O)n([C@H]2C[C@H](O)[C@@H](CO)O2)cc1F", "note": "[FdUrd, 5-fluoro-2'-deoxyuridine]", "values": [{"measurement": "% Growth Inhibition of DAN cells in culture", "setting": "[8]; FdUrd 0.1 μM alone, no potentiator", "result": 20, "unit": "%"}, {"measurement": "% Growth Inhibition of DAN cells in culture", "setting": "[8]; FdUrd 0.3 μM alone, no potentiator", "result": 34, "unit": "%"}, {"measurement": "inhibition at 0.1 µM", "setting": "[8]; Homo sapiens, FdUrd 0.1 μM alone, no potentiator", "result": "20.2 ± 1.1", "unit": "%"}, {"measurement": "inhibition at 0.3 µM", "setting": "[8]; Homo sapiens, FdUrd 0.3 μM alone, no potentiator", "result": "33.8 ± 1.3", "unit": "%"}, {"measurement": "inhibition at 1 µM", "setting": "[8]; Homo sapiens, FdUrd 1.0 μM alone, no potentiator", "result": "66 ± 1.4", "unit": "%"}]}
{"smiles": "O=c1[nH]c(=O)n(COC(CO)CO)cc1Cc1ccccc1", "note": "[HM-BAU, 5-Benzyl-1-[(1,3-dihydroxy-2-propoxy)methyl]uracil]", "values": [{"measurement": "Ki", "setting": "uridine phosphorylase [9]", "result": 2500, "unit": "nM"}, {"measurement": "inhibition of human liver uridine phosphorylase, in words", "setting": "uridine phosphorylase [9]", "result": "excellent inhibitors of this enzyme and superior to BAU and BBAU"}, {"measurement": "Ki", "setting": "uridine phosphorylase [10]", "result": 1600, "unit": "nM"}, {"measurement": "in vitro antineoplastic activity of FdUrd with potentiator, in words", "setting": "[8]", "result": "significantly potentiated"}, {"measurement": "% Growth Inhibition of DAN cells in culture", "setting": "[8]; [11]", "result": "63.4 ± 1.1% and 63%"}, {"measurement": "% Growth Inhibition of DAN cells in culture", "setting": "[8]; [12]", "result": "67.8 ± 1.7% and 68%"}, {"measurement": "effect of potentiator alone on the growth of DAN in culture", "setting": "[8]", "result": "do not affect the growth of DAN in culture"}, {"measurement": "water solubility", "setting": "Water solubility", "result": "water soluble"}]}
{"smiles": "O=c1[nH]c(=O)n(COC(CO)CO)cc1Cc1cccc(OCc2ccccc2)c1", "note": "[HM-BBAU, 5-(m-Benzyloxybenzyl)-1-[(1,3-dihydroxy-2-propoxy)methyl]uracil]", "values": [{"measurement": "Ki", "setting": "uridine phosphorylase [9]", "result": 650, "unit": "nM"}, {"measurement": "inhibition of human liver uridine phosphorylase, in words", "setting": "uridine phosphorylase [9]", "result": "excellent inhibitors of this enzyme and superior to BAU and BBAU"}, {"measurement": "Ki", "setting": "uridine phosphorylase [10]", "result": 320, "unit": "nM"}, {"measurement": "in vitro antineoplastic activity of FdUrd with potentiator, in words", "setting": "[8]", "result": "significantly potentiated"}, {"measurement": "% Growth Inhibition of DAN cells in culture", "setting": "[8]; [11]", "result": "73.6 ± 0.3% and 74%"}, {"measurement": "% Growth Inhibition of DAN cells in culture", "setting": "[8]; potentiator 50 μM, added 5 minutes prior to FdUrd 0.1 μM, P < 0.001 vs control, p < 0.01 from one another, listed as HN-BBAU", "result": 74, "unit": "%"}, {"measurement": "% Growth Inhibition of DAN cells in culture", "setting": "[8]; [12]", "result": "83.2 ± 1.3% and 83%"}, {"measurement": "% Growth Inhibition of DAN cells in culture", "setting": "[8]; potentiator 50 μM, added 5 minutes prior to FdUrd 0.3 μM, listed as HN-BBAU", "result": 83, "unit": "%"}, {"measurement": "effect of potentiator alone on the growth of DAN in culture", "setting": "[8]", "result": "do not affect the growth of DAN in culture"}, {"measurement": "water solubility", "setting": "Water solubility", "result": "water soluble"}]}
